Source: ChEMBL document CHEMBL5108072, “Discovery of Chlorofluoroacetamide-Based Covalent Inhibitors for Severe Acute Respiratory Syndrome Coronavirus 2 3CL Protease” (J Med Chem, 2022)

Legend:
[1] = system: SARS-CoV-2; assay: microbe, parasite or virus in culture; settings: Severe acute respiratory syndrome coronavirus 2, omicron TY38-873 BA.1, HEK-293T
[2] = system: SARS-CoV-2; assay: microbe, parasite or virus in culture; settings: Severe acute respiratory syndrome coronavirus 2, omicron TY38-873 BA.2, HEK-293T

Row | SMILES | EC50 [1] [nM] | EC50 [2] [nM]
1 | CC(C)C[C@H](NC(=O)c1cc2c(F)cccc2[nH]1)C(=O)NN(C[C@H]1CCNC1=O)C(=O)[C@H](F)Cl | 58.7 | 131
2 | CC(C)C[C@H](NC(=O)c1cc2c(F)cccc2[nH]1)C(=O)NN(C[C@@H]1CCNC1=O)C(=O)[C@H](F)Cl | 9.01 | 17.1
3 | CC(C)C[C@H](NC(=O)c1cc2c(F)cccc2[nH]1)C(=O)NN(C[C@@H]1CCNC1=O)C(=O)[C@@H](F)Cl | 35.6 | 126
4 | COc1cccc2[nH]c(C(=O)N[C@@H](CC(C)C)C(=O)NN(C[C@H]3CCNC3=O)C(=O)[C@H](F)Cl)cc12 | 58.8 | 121
5 | COc1cccc2[nH]c(C(=O)N[C@@H](CC(C)C)C(=O)NN(C[C@@H]3CCNC3=O)C(=O)[C@H](F)Cl)cc12 | 10.1 | 18.3
6 | O=c1nc(NO)ccn1[C@@H]1O[C@H](CO)[C@@H](O)[C@H]1O [N-HYDROXYCYTIDINE] | 574 | 336
7 | COc1cccc2[nH]c(C(=O)N[C@@H](CC(C)C)C(=O)N[C@@H](C[C@@H]3CCNC3=O)C(=O)CO)cc12 [PF-00835231] | 775 | 832
